B1: Annexin V‐AF647: a 36 kDa protein marker of PtdSer in the presence of Ca2+ ions (protein, UniProt P08758 2-320, looked up)
Annexin A5: AQVLRGTVTDFPGFDERADAETLRKAMKGLGTDEESILTLLTSRSNAQRQEISAAFKTLFGRDLLDDLKSELTGKFEKLIVALMKPSRLYDAYELKHALKGAGTNEKVLTEIIASRTPEELRAIKQVYEEEYGSSLEDDVVGDTSGYYQRMLVVLLQANRDPDAGIDEAQVEQDAQALFQAGELKWGTDEEKFITIFGTRSVSHLRKVFDKYMTISGFQIEETIDRETSGNLEQLLLAVVKSIRSIPAYLAETLYYAMKGAGTDDHTLIRVMVSRSEIDLFNIRKEFRKNFATSLYSMIKGDTSGDYKKALLLLCGEDD
modifications: Alexa Fluor 647 label
notes: a 36 kDa protein marker of PtdSer in the presence of Ca2+ ions

Assays:
8 cancer cell lines = assay: Classification of drugs by Apotracker Red (apoptosis) and CellTrace Violet (proliferation) staining; assay type: cell-based; conditions: 24 h treatment; for Drug group by Apotracker Red (apoptosis) and CV (proliferation) staining: 8 cell lines, single-dose screen; for Effect on cell proliferation (CellTrace Violet): CellTrace Violet 1 µM, Figure S8
Protocol: To corroborate the versatility of Apotracker Red, we built a screening platform including a total of 8 cancer cell lines of variable origin and pathogenesis: breast (MCF7, MDA‐MB231 and MMTV‐PyMT (mouse mammary tumour virus‐polyoma middle tumour‐antigen)[23]), lung (A549), prostate (PC3 and LnCap), blood cells (Jurkat) and colon (HT29). All cell lines were cultured under standard conditions and seeded with the fluorescent proliferation marker CellTrace^TM Violet (CV) in 96‐well plates (10–20×10^3 cells/well) for high‐throughput flow cytometry. After drug treatment (i.e., drug addition plus 24 h incubation), Apotracker Red was incubated for 10 min and fluorescence readings were directly acquired without any additional processing steps (Figure 3 a). […] Using this platform, we tested a collection of FDA‐approved drugs in all cancer cell lines and compared their ability to induce apoptosis using Apotracker Red as the reporter. Specifically, we included DNA alkylation agents (e.g., cyclophosphamide, cisplatin, 5‐fluorouracil, gemcitabine, temozolomide), proteasomal and mitotic inhibitors (e.g., bortezomib, docetaxel, paclitaxel) and antagonists of specific proteins (e.g., dexamethasone, tamoxifen; Figure 3 b).
(§1) First, all drugs were tested in the 8 different cell lines to determine the percentages of Apotracker Red‐stained apoptotic cells compared to no treatment (Figure 3 c; Figure S8). […] All 5 drugs were tested at multiple concentrations (from 1 to 100 μM) and with incubation times up to 48 h to examine whether drugs could block cell proliferation at late stages (Figures S9–S13).
Figure S8. Heatmap of relative inhibition of cell proliferation (as indicated by staining of CellTraceTM Violet) after treatment of cancer cell lines with different drugs. Data presented as an average of 3 independent experiments. Cells were stained on day 0 with CellTraceTM Violet (1 µM) and mean fluorescence intensities were determined on the 5L LSR after 24 h of treatment with the different drugs.
(1 picture or pasted object on this page, not shown here) […]
(§2) Cell culture. MCF-7, A549, LnCap, MDA-MB-231, Jurkat T cells and PC3 cells were obtained from American Type Culture Collection (ATCC). HT29 cells were purchased from Merck (S i g m a Aldrich, UK). Mouse Mammary Tumour Virus –Polyoma Middle T antigen (MMTV -PyMT) cells were provided by the lab of Mikala Egeblad (CSHL, US). MMTV-PyMT, MCF-7, LnCap, MDA-MB-231 and Jurkat T cells were cultured in Roswell Park Memorial Institute (RPMI) 1640 Medium supplemented with 10% fetal bovine serum (FBS) , 100 U mL-1 penicillin and 0.1 mg mL-1 streptomycin. A549 and PC3 cells were cultured in Dublecco’s modified Eagle’s medium (DMEM) supplemented with 10% fetal bovine serum (FBS), 100 U mL-1 penicillin and 0.1 mg […]
(§3) Flow cytometry drug screen.

MDA-MB-231 cells = assay: Dose-dependency study with Apotracker Red; assay type: cell-based, human; conditions: 1 to 100 µM, 48 h, Apotracker Red 150 nM
Protocol: as §1
Edinburgh. Human peripheral blood neutrophils were isolated as previously described.[3] Briefly, whole blood was drawn into tubes containing anti -coagulant 3.6% sodium citrate (final concentration: 0.4% (w/v)) and centrifuged at 350 g for 20 min at r.t. with lowest acceleration and no brake. Platelet-rich plasma was rem oved, and leukocytes separated from erythrocytes by 0.6% dextran sedimentation in saline for 30 min at r.t. The upper layer was further fractionated using an isotonic discontinuous Percoll density gradient. Neutrophils were harvested from the 63% and 72.9% interface and cultured in Iscove’s Modified Dulbecco’s Medium (IMDM, Gibco) in 5% h um an A B se rum fo r 1 8 h at 37°C, 5% CO2 to in du ce spontaneous […]
as §2, §3

[1] = test system: breast cancer cells (MMTV-PyMT, MDA-MB231, MCF7); assay: Dose-dependency study with Apotracker Red and CellTrace Violet; assay type: cell-based, mouse and human; conditions: 1 to 100 µM, 48 h, Apotracker Red 150 nM; 3 independent experiments
Protocol: as §1, with “S8). […] From this screen, we decided to select 5 drugs with potent pro‐apoptotic response in breast cancer, the most diagnosed cancer worldwide.[25] […] From group 2, we selected cyclophosphamide, tamoxifen, and 5‐fluorouracil as pro‐apoptotic molecules.” for “S8).”
Figure 4 Apotracker Red detects dose‐dependent chemotherapeutic‐induced apoptosis in mouse and human breast cancer cell lines. Cells were plated with 1 μM CV, treated with increasing concentrations (0, 1, 3, 10, 30 and 100 μM) of selected drugs for 48 h, and stained with Apotracker Red (150 nM) before data acquisition. Drugs: tamoxifen (beige), cisplatin (black), 5‐fluorouracil (green), gemcitabine (pink) and cyclophosphamide (red). Data presented as mean±SEM of 3 independent experiments.
Figure S9. Flow cytometry analysis of cisplatin in different breast cancer cell lines.
Representative flow cytometric plots (from three independent experiments) of MMTV-PyMT cells (a), MDA-MB231 cells (b) and MCF7 cells (c) after treatment with increasing concentrations of cisplatin for 48 h. Cells were stained on day 0 with CellTraceTM Violet (1 µ M) and with Apotracker Red (150 nM) before data acquisition.
(1 picture or pasted object on this page, not shown here)
Edinburgh. Human peripheral blood neutrophils were isolated as previously described.[3] […]
were centrifuged (300 g, 5 min, r.t.), washed once with PBS before addition of 0.05% Trypsin, 0.02% ethylenediaminetetraacetic acid (EDTA) in Hank’s balanced salt solution (HBSS) and incubation at 37°C for 5 min. […] Histograms and mean fluorescence intensities of […]

[2] = test system: apoptotic cells (primary human neutrophils, Jurkat T cells); assay: Divalent cation-independent staining of apoptotic cells; assay type: cell-based; conditions: 2.5 mM EDTA; Apotracker Red 150 nM, Annexin V-AF647 25 nM

Molecule	Drug group by Apotracker Red (apoptosis) and CV (proliferation) staining (8 cancer cell lines)	Apotracker Red staining in MDA-MB-231 cells, dose-dependency study (MDA-MB-231 cells)	also measured
Nc1ccn([C@@H]2O[C@H](CO)[C@@H](O)C2(F)F)c(=O)n1 [gemcitabine]	induced apoptosis and decreased cell proliferation	weaker Apotracker Red‐staining	
Cn1nnc2c(C(N)=O)ncn2c1=O [temozolomide]	inhibited cell proliferation but showed little or no induction of apoptosis		
CC(=O)O[C@H]1C(=O)[C@@]2(C)[C@H]([C@H](OC(=O)c3ccccc3)[C@]3(O)C[C@H](OC(=O)[C@H](O)[C@@H](NC(=O)c4ccccc4)c4ccccc4)C(C)=C1C3(C)C)[C@]1(OC(C)=O)CO[C@@H]1C[C@@H]2O [paclitaxel]	induced apoptosis with little reduction of cell proliferation		Effect on cell proliferation (CellTrace Violet) (8 cancer cell lines): very minor effects on cell proliferation
O=P1(N(CCCl)CCCl)NCCCO1 (stereo not drawn) [cyclophosphamide]		weaker Apotracker Red‐staining	
C[C@@H]1C[C@H]2[C@@H]3CCC4=CC(=O)C=C[C@]4(C)[C@@]3(F)[C@@H](O)C[C@]2(C)[C@@]1(O)C(=O)CO [dexamethasone]	had no impact on proliferation or apoptosis		
CC/C(=C(\c1ccccc1)c1ccc(OCCN(C)C)cc1)c1ccccc1 [tamoxifen]	induced apoptosis with little reduction of cell proliferation		Percentages of Apotracker Red staining, dose-dependency study [1]: highest percentages of Apotracker Red staining across all breast cancer cells
O=c1[nH]cc(F)c(=O)[nH]1 [5-fluorouracil]	induced apoptosis with little reduction of cell proliferation	weaker Apotracker Red‐staining	
CC(=O)O[C@@]12CO[C@@H]1C[C@H](O)[C@@]1(C)C(=O)[C@H](O)C3=C(C)[C@@H](OC(=O)[C@H](O)[C@@H](NC(=O)OC(C)(C)C)c4ccccc4)C[C@@](O)([C@@H](OC(=O)c4ccccc4)[C@H]21)C3(C)C [docetaxel]	inhibited cell proliferation but showed little or no induction of apoptosis		
CC(C)C[C@H](NC(=O)[C@H](Cc1ccccc1)NC(=O)c1cnccn1)B(O)O [bortezomib]	induced apoptosis with little reduction of cell proliferation		Effect on cell proliferation (CellTrace Violet) (8 cancer cell lines): very minor effects on cell proliferation
B1			Staining of apoptotic cells after chelation of divalent cations [2]: failed to bind

From paper PMC8991960, “A Bivalent Activatable Fluorescent Probe for Screening and Intravital Imaging of Chemotherapy‐Induced Cancer Cell Death” (Angewandte Chemie (International Ed. in English), 2021)
